Key:
5-HT2B receptor = target: T1, 5-HT2B receptor (Homo sapiens, UniProt P41595); test: Calcium mobilization assay, agonist format, 5-HT2B receptor; type: cell-based; settings: read-out: 5-HT2B agonist Efficacy @ 5 µM
T1 construct: host or cells: unnamed cell lines
Experimental: (§1) Protocol—in vitro testing at select 5-hydroxytryptamine (5-HT; serotonin) receptors was conducted.
(§2) • 1. Cell lines were expanded from freezer stocks according to standard procedures. • 2. Cells were seeded in a total volume of 20 μL into black-walled, clear-bottom, Poly-D-lysine coated 384-well microplates and incubated at 37° C. for the appropriate time prior to testing.
(§3) • 1. Assays were performed in 1×Dye Loading Buffer consisting of 1× Dye, 1× Additive A and 2.5 mM Probenecid in HBSS/20 mM Hepes. Probenicid was prepared fresh. • 2. Cells were loaded with dye prior to testing. Media was aspirated from cells and replaced with 20 μL Dye Loading Buffer. • 3. Cells were incubated for 30-60 minutes at 37° C.
(§4) • 1. For agonist determination, cells were incubated with sample to induce response. • 2. After dye loading, cells were removed from the incubator and 10 μL HBSS/20 mM Hepes was added. 3× vehicle was included in the buffer when performing agonist dose curves to define • the EC80 for subsequent antagonist assays. Cells were incubated for 30 minutes at room temperature in the dark to equilibrate plate temperature. • 3. Intermediate dilution of sample stocks was performed to generate 4× sample in assay buffer. • 4. Compound agonist activity was measured on a FLIPR Tetra (MDS). Calcium mobilization was monitored for 2 minutes and 10 μL 4× sample in HBSS/20 mM Hepes was added to the cells 5 seconds into the assay.
(§5) • 1. Compound activity was analyzed using CBIS data analysis suite (ChemInnovation, CA). • 2. For agonist mode assays, percentage activity is calculated using the following formula: % Activity=100%×(mean RFU of test sample−mean RFU of vehicle control)/(mean MAX RFU control ligand −mean RFU of vehicle control). • 3. For positive allosteric mode assays, percentage modulation was calculated using the following formula: % Modulation=100%×((mean RFU of test sample−mean RFU of EC20 control)/(mean RFU of MAX control ligand −mean RFU of EC20 control)). • 4. For antagonist and negative allosteric modulation mode assays, percentage inhibition is calculated using the following formula: % Inhibition=100%×(1−(mean RFU of test sample−mean RFU of vehicle control)/(mean RFU of EC80 control−mean RFU of vehicle control)).
(§6) As discussed above, agonism, or partial agonism, of the 5-HT2A receptor (also known as positive allosteric modulation, or 5-HT2A modulation) is useful for the treatment of neurological and psychiatric disorders. For example, 5-HT2A agonism has been correlated with the promotion of neural plasticity (Ly et al., 2018). Agonism of the 5-HT2B receptor has been associated with unwanted cardiac valvulopathy side-effects, a form of cardio-toxicity (Rothman et al., Circulation. 2000, 102, 2836-2841; Fitzgerald et al., Molecular Pharmacology 2000, 57, 75-81). […] Antagonists of the 5-HT2C receptor are also useful for the treatment of neurological and psychiatric disorders (Kennett et al., Neuropharmacology 1997, 36, 609-620).

[1] = Metabolic stability in human liver microsomes; type: in vitro ADME; settings: values marked * average of two experiments; for microsomal CLint at 0.2 μM: pH 7.4, intrinsic clearance, read-out: CLint(mic); for CLint scaled at 0.2 μM: pH 7.4, scaled from CLint(mic)
Experimental: Microsomal Assay: Human liver microsomes (20 mg/mL) are obtained from Xenotech, LLC (Lenexa, KS). β-nicotinamide adenine dinucleotide phosphate, reduced form (NADPH), magnesium chloride (MgCl2), and dimethyl sulfoxide (DMSO) are purchased from Sigma-Aldrich.
Determination of Metabolic Stability: 7.5 mM stock solutions of test compounds of the above structural formula (e.g., of an embodiment or aspect of embodiment thereof described herein), or pharmaceutically acceptable salt thereof, are prepared in DMSO. […] The diluted microsomes are added to wells of a 96-well deep-well polypropylene plate in triplicate. […] Reactions are initiated by addition of pre-warmed NADPH solution. The final reaction volume is 0.5 mL and contains 4.0 mg/mL human liver microsomes, 0.2 μM test compound, and 2 mM NADPH in 0.1 M potassium phosphate buffer, pH 7.4, and 3 mM MgCl2. The reaction mixtures are incubated at 37° C., and […] aliquots are removed at 0, 5, 10, 20, and 30 minutes and added to shallow-well 96-well plates which contain […] of ice-cold ACN (acetonitrile) with internal standard to stop the reactions. The plates are stored at 4° C. for 20 minutes after which […] of water is added to the wells of the plate before centrifugation to pellet precipitated proteins. Supernatants are transferred to another 96-well plate and analyzed for amounts of parent remaining by LC-MS/MS using an Applied Bio-systems API 4000 mass spectrometer. The same procedure is followed for the non-deuterated counterpart of the compound and the positive control, 7-ethoxycoumarin (1 μM). Testing is done in triplicate.
Data analysis: The in vitro Ti/s for test compounds are calculated from the slopes of the linear regression of % parent remaining (In) vs incubation time relationship.
[formula] • k=−[slope of linear regression of % parent remaining (In) vs incubation time] • The apparent intrinsic clearance is calculated using the following equation: […]
Data analysis is performed using Microsoft Excel Software.

5-HT2C receptor = target: T2, 5-HT2C receptor (Homo sapiens, UniProt P28335); test: Calcium mobilization assay, antagonist format, 5-HT2C receptor; type: cell-based; design: dose or concentration left out as unconfirmed
T2 construct: host or cells: unnamed cell lines
T2 sequence (P28335 33-458): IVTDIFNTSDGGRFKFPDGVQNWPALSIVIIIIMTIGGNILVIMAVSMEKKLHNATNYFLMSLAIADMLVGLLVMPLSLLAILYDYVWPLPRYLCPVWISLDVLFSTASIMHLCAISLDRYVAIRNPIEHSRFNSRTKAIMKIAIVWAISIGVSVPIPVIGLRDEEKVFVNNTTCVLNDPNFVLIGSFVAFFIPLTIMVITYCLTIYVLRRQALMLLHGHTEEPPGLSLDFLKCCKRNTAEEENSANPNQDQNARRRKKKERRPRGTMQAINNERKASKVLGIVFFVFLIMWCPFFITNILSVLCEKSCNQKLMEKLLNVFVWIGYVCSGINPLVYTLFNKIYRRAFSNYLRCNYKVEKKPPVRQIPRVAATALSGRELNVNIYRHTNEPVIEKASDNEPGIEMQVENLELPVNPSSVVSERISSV
Experimental: as §1, §2, §3
• 1. For antagonist determination, cells were pre-incubated with sample followed by agonist challenge at the EC80 concentration. • 2. Intermediate dilution of sample stocks was performed to generate 3× sample in assay buffer. • 3. After dye loading, cells were removed from the incubator and […] 3× sample was added. Cells were incubated for 30 minutes at room temperature in the dark to equilibrate plate temperature. Vehicle concentration was 1%. • 4. Compound antagonist activity was measured on a FLIPR Tetra (MDS). Calcium mobilization was monitored for 2 minutes and 10 μL EC80 agonist in HBSS/20 mM Hepes was added to the cells 5 seconds into the assay.
as §5, §6

5-HT2A receptor = target: T3, 5-HT2A receptor (Homo sapiens, UniProt P28223); test: Calcium mobilization assay, agonist format, 5-HT2A receptor; type: cell-based; settings: read-out: 5-HT2A agonist Efficacy @ 10 µM
T3 construct: host or cells: unnamed cell lines
T3 sequence (P28223 whole entry): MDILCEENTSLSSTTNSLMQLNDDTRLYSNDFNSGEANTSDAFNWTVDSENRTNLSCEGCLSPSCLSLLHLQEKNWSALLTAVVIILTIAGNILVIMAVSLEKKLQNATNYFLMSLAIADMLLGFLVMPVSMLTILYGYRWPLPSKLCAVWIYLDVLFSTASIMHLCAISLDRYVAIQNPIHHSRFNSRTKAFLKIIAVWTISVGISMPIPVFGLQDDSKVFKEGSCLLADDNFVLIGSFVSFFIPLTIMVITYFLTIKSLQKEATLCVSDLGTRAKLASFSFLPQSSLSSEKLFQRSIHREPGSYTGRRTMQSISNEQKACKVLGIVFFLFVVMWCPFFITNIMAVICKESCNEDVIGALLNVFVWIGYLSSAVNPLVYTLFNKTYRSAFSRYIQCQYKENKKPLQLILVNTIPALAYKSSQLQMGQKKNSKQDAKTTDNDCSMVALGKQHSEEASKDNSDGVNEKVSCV
Experimental: as §1, §2, §3, §4, §5, §6

T1 sequence (P41595 whole entry): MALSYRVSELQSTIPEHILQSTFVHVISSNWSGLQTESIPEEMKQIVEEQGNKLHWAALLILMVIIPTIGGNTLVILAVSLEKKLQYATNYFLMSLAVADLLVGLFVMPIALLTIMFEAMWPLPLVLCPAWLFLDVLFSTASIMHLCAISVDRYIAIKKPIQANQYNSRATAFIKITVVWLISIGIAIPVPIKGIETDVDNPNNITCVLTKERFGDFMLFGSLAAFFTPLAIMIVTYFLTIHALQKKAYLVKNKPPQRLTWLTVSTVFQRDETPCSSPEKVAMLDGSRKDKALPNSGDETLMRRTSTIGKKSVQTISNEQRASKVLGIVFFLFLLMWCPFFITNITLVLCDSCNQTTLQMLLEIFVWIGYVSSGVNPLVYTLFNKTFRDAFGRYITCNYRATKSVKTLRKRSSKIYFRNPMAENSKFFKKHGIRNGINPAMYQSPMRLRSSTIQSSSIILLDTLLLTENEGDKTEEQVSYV

SMILES | activation at 5 µM (5-HT2B receptor) [%] | half-life at 0.2 μM ([1]; pH 7.4, half life) [h] | microsomal CLint at 0.2 μM [1] [µL/min/mg] | CLint scaled at 0.2 μM [1] [mL/min/kg] | inhibition (5-HT2C receptor) [%] | activation at 10 µM (5-HT2A receptor) [%] | CLint(mic) ([1]; intrinsic clearance)
COc1ccc2c3c([nH]c2c1)CCNCC3 [8-methoxy-1,2,3,4,5,6-hexahydroazepino[4,5-b]indole, reference compound] | 0.6 | 1.82 | 12.7 | 11.4 | 98.1 | 85.3 | 
CN1CCc2[nH]c3cc(S(F)(F)(F)(F)F)ccc3c2CC1 [Compound 109, pentafluoro-(3-methyl-2,4,5,6-tetrahydro-1H-azepino[4,5-b]indol-8-yl)-λ^6-sulfane] | 8.5 |  |  |  | 101 | 13.7 | 
CN1CCc2[nH]c3cccc(S(F)(F)(F)(F)F)c3c2CC1 [Compound 110, pentafluoro-(3-methyl-2,4,5,6-tetrahydro-1H-azepino[4,5-b]indol-10-yl)-λ^6-sulfane] | 4 |  |  |  | 103 | 8.9 | 
CN1CCc2[nH]c3cc(OC4CC4)ccc3c2CC1 [Compound 117, 8-(cyclopropoxy)-3-methyl-2,4,5,6-tetrahydro-1H-azepino[4,5-b]indole] | 1.7 |  |  |  | 99.7 | 10.4 | 
CN1CCc2[nH]c3c4c(ccc3c2CC1)OCCC4 [Compound 122, 9-methyl-2,3,7,8,9,10,11,12-octahydro-1H-azepino[4,5-b]pyrano[2,3-g]indole] | -0.8 |  |  |  | 98.9 | 54 | 
CN1CCc2[nH]c3c4c(ccc3c2CC1)OCC4 [Compound 124, 8-methyl-1,2,6,7,8,9,10,11-octahydroazepino[4,5-b]furo[2,3-g]indole] | -0.7 |  |  |  | 93.1 | 83.8 | 
CN1CCc2[nH]c3cc(C#N)ccc3c2CC1 [Compound 136, 3-methyl-2,4,5,6-tetrahydro-1H-azepino[4,5-b]indole-8-carbonitrile] | -1 |  |  |  | 98.6 | 41.8 | 
CN1CCc2[nH]c3cccc(C#N)c3c2CC1 [Compound 138, 3-methyl-2,4,5,6-tetrahydro-1H-azepino[4,5-b]indole-10-carbonitrile] | -0.4 |  |  |  | 100 | 15.4 | 
COc1ccc2c3c([nH]c2c1)CCN(CCO)CC3 [Compound 140, 2-(8-methoxy-2,4,5,6-tetrahydro-1H-azepino[4,5-b]indol-3-yl)ethanol] | -0.9 |  |  |  | 93.8 | 48.1 | 
COc1ccc2c3c([nH]c2c1)CCN(CCS(C)(=O)=O)CC3 [Compound 143, 8-methoxy-3-(2-methylsulfonylethyl)-2,4,5,6-tetrahydro-1H-azepino[4,5-b]indole] | -0.1 |  |  |  | 97.2 | 42.1 | 
COc1ccc2c3c([nH]c2c1)CCN(CCN(C)C)CC3 [Compound 144, 2-(8-methoxy-2,4,5,6-tetrahydro-1H-azepino[4,5-b]indol-3-yl)-N,N-dimethyl-ethanamine] | -0.5 |  |  |  | 3.1 | -0.7 | 
[2H]C([2H])([2H])N1CCc2[nH]c3cc(OC4CC4)ccc3c2CC1 [Compound 145, 8-cyclopropoxy-3-(^2H3)methyl-1H,2H,3H,4H,5H,6H-azepino[4,5-b]indole] | 1.5 |  |  |  | 101 | 5.8 | 
[2H]C([2H])([2H])Oc1ccc2c3c([nH]c2c1)CCN(C1CC1)CC3 [Compound 146, 3-cyclopropyl-8-(trideuteriomethoxy)-2,4,5,6-tetrahydro-1H-azepino[4,5-b]indole] | 9 |  |  |  | 103 | 69.4 | 
COc1ccc2c3c([nH]c2c1)CCN(C1CC1)CC3 [Compound 164, 3-cyclopropyl-8-methoxy-2,4,5,6-tetrahydro-1H-azepino[4,5-b]indole] | 2.7 |  |  |  | 100 | 61 | 
c1cc2c3c([nH]c2cc1OC1CC1)CCN(C1CC1)CC3 [Compound 165, 8-cyclopropoxy-3-cyclopropyl-1,2,3,4,5,6-hexahydroazepino[4,5-b]indole] | 0.9 |  |  |  | 71.7 | -2.7 | 
CN1CCc2[nH]c3cc4c(cc3c2CC1)OCC4 [Compound 166, 8-methyl-2,3,5,6,7,8,9,10-octahydroazepino[4,5-b]furo[2,3-f]indole] | 0.3 |  |  |  | 97.9 | 53.5 | 
O=C(O)Cc1ccccc1Nc1c(Cl)cccc1Cl [Diclofenac, reference compound] |  |  |  | 182 |  |  | 201.9* μL/min/mg
Cc1cc2c(cc1Cl)N(C(=O)Nc1ccc(Oc3cccnc3C)nc1)CC2 [SB242084, reference compound] |  |  |  |  | 101 |  | 
C[C@]12CC[C@H]3[C@@H](CCC4=CC(=O)CC[C@@]43C)[C@@H]1CC[C@@H]2O [Testosterone, reference compound] |  |  | 114 | 103 |  |  | 

Reference: US20260138985A1, “Azepino-Indoles for the Treatment of Neurological and Psychiatric Disorders” (Terran Biosciences Inc., priority 2021, published 2026)
